Experimental data published in patent US9221876B2, “Methods for treating kidney disease with fragments of ApoB-100” (Cedars-Sinai Medical Center, priority 2011, dated 2015).
Entries after “also recorded” stand apart in the source; their conditions may differ. No end group written: not given here.

Columns and labels:
Type in all cases: in vivo, apoE (−/−) male mice
TNF-α = TNF-α mRNA expression in kidney, quantitative PCR; details: p210/cBSA/Alum+AngII vs cBSA/Alum+AngII and PBS+AngII; N=10 each; p<0.05
Procedure: (§1) The inventors assessed the effect of p210 immunization on AngII-induced renal inflammatory responses in apoE (−/−) male mice. For the experiments described herein, native p210 peptide (KTTKQ SFDLS VKAQY KKNKH) was conjugated to cationic bovine serum albumin (cBSA) as carrier. Alum was used as an adjuvant. At 7, 10, and 12 weeks of age, male apoE (−/−) mice were subcutaneously injected with 100 μg of p210/cBSA/Alum. As immunization controls, 100 μg of cBSA/Alum, or PBS were injected. At 10 weeks of age after first immunization booster, 1000 ng/Kg/min of AngII was delivered by subcutaneously implanted osmotic pump for 4 weeks (FIG. 1A).
(§2) At euthanasia, kidney was harvested for quantitative PCR analysis or histological analysis. Data are presented as mean±SEM. Data were analyzed by ANOVA following post-hoc test for multiple group comparison.

[1] = system: glomerular ROS production; assay: Glomerular ROS (superoxide) production, in situ dihydroethidium (DHE) labeling of frozen kidney sections; details: p210/cBSA/Alum+AngII vs cBSA/Alum+AngII and PBS+AngII; N=4 each; p<0.05
Description: (A) Representative figure of in situ DHE labeling. (B) Densitometric analysis of DHE fluorescence. *p<0.05 vs. p210. N=4 each. p210: immunized with p210/cBSA/Alum+AngII; cBSA: immunized with cBSA/Alum+AngII; PBS: immunized with PBS+AngII.
as §1
Superoxide production in kidney was measured by in situ dihydroethidium (DHE) methods with freshly cut frozen sections.

[2] = system: Angiotensin II type 1 receptor (AT1R); assay: AT1R expression in aorta, Western blot with densitometric analysis, after p210 immunization and AngII infusion; details: 100 μg p210/cBSA/Alum s.c. at 7, 10, 12 weeks of age; AngII 1000 ng/Kg/min by osmotic pump for 4 weeks; vs cBSA/Alum and PBS; N=6 each
Description: N=6 in each group. p210: immunized with p210/cBSA/Alum+AngII; cBSA: immunized with cBSA/Alum+AngII; PBS: immunized with PBS+AngII.
as §1

PAI-1 = PAI-1 mRNA expression in kidney; details: p210/cBSA/Alum+AngII vs cBSA/Alum+AngII and PBS+AngII; N=5 each; p<0.05
Description: (§3) (Left): PAI-1. N=5 each, (Right): TGF-β. N=9 each. *p<0.05 vs. p210. p210: immunized with p210/cBSA/Alum+AngII; cBSA: immunized with cBSA/Alum+AngII; PBS: immunized with PBS+AngII.
as §1, §2
(§4) These anti-hypertensive and renal protective effects are associated with significant reduction of inflammatory cytokines and chemokine gene expression, ROS production mediated by NADPH oxidase, and profibrotic gene expression in kidney. […]

[3] = Serum creatinine level (indicator of renal function), creatinine assay kit, AngII-induced renal damage
Procedure: as §1
Serum creatinine (Cr.) (an indicator of renal function) level at 14 weeks of age was assessed by commercially available creatinine assay kit following the manufacture's instruction. […] N: p210=12, cBSA=11, PBS=9.

TGF-β = TGF-β mRNA expression in kidney; details: p210/cBSA/Alum+AngII vs cBSA/Alum+AngII and PBS+AngII; N=9 each; p<0.05
Description: as §3, §1, §2, §4

MCP-1 = MCP-1 mRNA expression in kidney, quantitative PCR; details: p210/cBSA/Alum+AngII vs cBSA/Alum+AngII and PBS+AngII; N=8 each; p<0.05
Procedure: as §1, §2

IL-6 = IL-6 mRNA expression in kidney, quantitative PCR; details: p210/cBSA/Alum+AngII vs cBSA/Alum+AngII and PBS+AngII; N=8 each; p<0.05
Procedure: as §1, §2

[4] = system: NOX1, a component of NADPH oxidase; assay: NOX1 expression in kidney; details: p210/cBSA/Alum+AngII vs cBSA/Alum+AngII and PBS+AngII; N=8 each; p<0.05
Description: as §3, §1, §2, §4

Substance: KTTKQ SFDLS VKAQY KKNKH (KTTKQSFDLSVKAQYKKNKH; also: conjugated to cationic BSA carrier) [Peptide P210, amino acids 3136-3155 of human ApoB-100; tested conjugated to cationic bovine serum albumin (cBSA) as carrier, Alum as adjuvant]
- TNF-α mRNA expression in kidney (TNF-α): down-regulated; also recorded: significantly reduced
- glomerular ROS production (DHE fluorescence) [1]: significantly reduced
- expression of Angiotensin II type 1 receptor (AT1R) in aorta [2]: significantly decreased
- PAI-1 mRNA expression in kidney (PAI-1): significantly downregulated; also recorded: significantly reduced
- Serum Cr. ([3]; at 14 weeks of age, 100 μg p210/cBSA/Alum s.c. at 7, 10, 12 weeks, AngII infusion 4 weeks, mean±SEM, N p210=12): 0.6 ± 0.1 mg/dL
- Serum creatinine level vs cBSA and PBS groups ([3]; at 14 weeks of age, p<0.05): significantly lower
- AngII-induced renal damage ([3]; p210 immunization, AngII infusion 4 weeks): protected against AngII-induced renal damage; also recorded: significantly attenuated
- TGF-β mRNA expression in kidney (TGF-β): significantly downregulated; also recorded: significantly reduced
- MCP-1 mRNA expression in kidney (MCP-1): down-regulated; also recorded: significantly reduced
- IL-6 mRNA expression in kidney (IL-6): down-regulated; also recorded: significantly reduced
- NOX1 expression in kidney [4]: significantly reduced
